Results published in patent US7820646B2, “Cyclized derivatives as Eg-5 inhibitors” (Novartis Vaccines and Diagnostics, Inc., priority 2007, dated 2010).

Legend:
HCT-15 colon carcinoma = assay: Inhibition of cellular proliferation in tumor cell lines (CellTiter Glo), HCT-15; type: cell-based; conditions: Homo sapiens; HCT-15, 72 hours of continuous compound exposure; read-out: Cell Base Activity GI50 HCT-15
Description: (§1) Cells are plated in 96-well plates at densities of about 500 cells per well of a 96-well plate and are allowed to grow for 24 hours. The cells are then treated with various concentrations of compounds for 72 hours. Then, 100 μl of CellTiter Glo is added. CellTiter Glo is a tetrazolium-based assay using the reagent 3-(4,5-dimethylthiazol-2-yl) 5-(3-carboxymethoxyphenyl)-2-(4-sulfophenyl)-2H-tetrazolium (MTS) (U.S. Pat. No. 5,185,450) (see Promega product catalog #G3580, CellTiter 96 Aqueous One Solution Cell Proliferation Assay). The cells are then incubated in the dark for 30 minutes. The amount of luminescence is determined for each well using a Walloc Trilux plate reader, which correlates with the number of cells per well. The number of viable cells in the wells that receive only DMSO (0.5%) serve as an indication of 0% inhibition, while wells without cells serve as 100% inhibition of cell growth. The compound concentration that results in a 50% growth inhibition (GI50) is determined graphically from sigmoidal dose-response curves of log-transformed dose values versus cell counts (percent of control) at 72 hours of continuous compound exposure.
(§2) The cell lines used are listed below.
(§3) The cell proliferation assay is performed as described above.

[1] = molecular target: T1, motor domain of human KSP (Eg 5, KNSL1) (Homo sapiens, UniProt P52732); assay: Assay for determining KSP activity (microtubule-stimulated ATPase, Biomol Green); conditions: KSP motor domain 45 nM, microtubules 35 μg/mL, 1 hour at RT; read-out: Biochemical Activity IC50
T1 construct: KSP motor protein (i.e., the KSP motor domain); made in house
T1 sequence (P52732 18-359 limits assumed): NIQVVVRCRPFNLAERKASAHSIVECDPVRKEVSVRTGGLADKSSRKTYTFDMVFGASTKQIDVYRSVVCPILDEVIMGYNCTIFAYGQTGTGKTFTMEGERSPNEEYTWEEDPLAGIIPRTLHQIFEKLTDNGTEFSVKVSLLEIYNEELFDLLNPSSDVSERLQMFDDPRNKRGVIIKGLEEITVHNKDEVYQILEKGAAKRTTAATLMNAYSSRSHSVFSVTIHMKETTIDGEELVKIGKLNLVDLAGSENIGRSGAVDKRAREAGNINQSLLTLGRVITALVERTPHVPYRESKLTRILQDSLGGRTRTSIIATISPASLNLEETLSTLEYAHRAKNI
Excerpt: This example provides a representative in vitro assay for determining KSP activity in vitro. Purified microtubules obtained from bovine brain were purchased from Cytoskeleton Inc. (Denver, Colo., USA). The motor domain of human KSP (Eg 5, KNSL1) was cloned, expressed, and purified to greater than 95% homogeneity. Biomol Green was purchased from Affinity Research Products Ltd. (Matford Court, Exeter, Devon, United Kingdom). Microtubules and KSP motor protein (i.e., the KSP motor domain) were diluted in assay buffer (20 mM Tris-HCl (pH 7.5), 1 mM MgCl2, 10 mM DTT and 0.25 mg/mL BSA) to a final concentration of 35 μg/mL microtubules and 45 nM KSP. The microtubule/KSP mixture was then pre-incubated at 37° C. for 10 min to promote the binding of KSP to microtubules.
To each well of the testing plate (384-well plate) containing 1.25 μL of inhibitor or test compound in DMSO (or DMSO only in the case of controls) were added 25 μL of ATP solution (ATP diluted to a concentration of 300 μM in assay buffer) and 25 μL of the above-described microtubule/KSP solution. The plates were incubated at RT for 1 hour. Following incubation, 65 μL of Biomol Green (a malachite green-based dye that detects the release of inorganic phosphate) was added to each well. The plates were incubated for an additional 5-10 minutes then the absorbance at 630 nm was determined using a Victor II plate reader. The amount of absorbance at 630 nm corresponded to the amount of KSP activity in the samples. The IC50 of each inhibitor or test compound was then determined based on the decrease in absorbance at 630 nm at each concentration, via nonlinear regression using either XLFit for Excel or Prism data analysis software by GraphPad Software Inc.

[2] = test system: KB8.5 (KB85 - p-glycoprotein associated multi-drug resistant cell line); assay: Inhibition of cellular proliferation in tumor cell lines (CellTiter Glo), KB8.5; type: cell-based; conditions: KB8.5, 72 hours of continuous compound exposure; read-out: Cell Base Activity GI50 KB8.5
Description: as §1, §2, §3

parental cell line = assay: Inhibition of cellular proliferation in tumor cell lines (CellTiter Glo), KB3.1; type: cell-based; conditions: Homo sapiens, KB 3-1; KB3.1, 72 hours of continuous compound exposure; read-out: Cell Base Activity GI50 KB3.1
Description: as §1, §2, §3

HCT-116 colon carcinoma = assay: Inhibition of cellular proliferation in tumor cell lines (CellTiter Glo), HCT-116; type: cell-based; conditions: Homo sapiens; HCT-116, 72 hours of continuous compound exposure; read-out: Cell Base Activity GI50 HCT-116
Description: as §1, §2, §3

Row | SMILES | GI50 (HCT-15 colon carcinoma) | IC50 [1] | GI50 [2] | GI50 (parental cell line) | GI50 (HCT-116 colon carcinoma)
1 | C[C@@H]1O[C@H](CN)CN([C@@H](c2nc(-c3cccc(F)c3)cn2Cc2ccccc2)C(C)(C)C)C1=O [Compound 14, (2S,6R)-6-(aminomethyl)-4-{(1R)-1-[1-benzyl-4-(3-fluorophenyl)-1H-imidazol-2-yl]-2,2-dimethylpropyl}-2-methylmorpholin-3-one] | > 1 µM | > 1 µM | > 1 µM | > 1 µM | > 1 µM
2 | C[C@H]1O[C@H](CN)CN([C@@H](c2nc(-c3cccc(F)c3)cn2Cc2ccccc2)C(C)(C)C)C1=O [Compound 15, (2R,6R)-6-(aminomethyl)-4-{(1R)-1-[1-benzyl-4-(3-fluorophenyl)-1H-imidazol-2-yl]-2,2-dimethylpropyl}-2-methylmorpholin-3-one] | > 1 µM | 0.1 to 1 µM | > 1 µM | > 1 µM | > 1 µM
3 | CC(C)(C)[C@H](c1nc(-c2cccc(F)c2)cn1Cc1cccc(F)c1)N1C[C@@H](CN)COCC1=O [Compound 28, (6R)-6-(aminomethyl)-4-{(1R)-1-[1-(3-fluorobenzyl)-4-(3-fluorophenyl)-1H-imidazol-2-yl]-2,2-dimethylpropyl}-1,4-oxazepan-3-one] | ≤ 0.1 µM | ≤ 0.1 µM | ≤ 0.1 µM | ≤ 0.1 µM | ≤ 0.1 µM
4 | CC(C)(C)[C@H](c1nc(-c2cccc(F)c2)cn1Cc1ccccc1)N1C[C@@H](CN)COCC1=O [Compound 27, (6R)-6-(aminomethyl)-4-{(1R)-1-[1-benzyl-4-(3-fluorophenyl)-1H-imidazol-2-yl]-2,2-dimethylpropyl}-1,4-oxazepan-3-one] | 0.1 to 1 µM | ≤ 0.1 µM | ≤ 0.1 µM | ≤ 0.1 µM | ≤ 0.1 µM
5 | CC(C)(C)[C@H](c1nc(-c2ccccc2)cn1Cc1ccccc1)N1C[C@@H](CN)OCC1=O [Compound 7, (6R)-6-(aminomethyl)-4-[(1R)-1-(1-benzyl-4-phenyl-1H-imidazol-2-yl)-2,2-dimethylpropyl]morpholin-3-one] | 0.1 to 1 µM | ≤ 0.1 µM | 0.1 to 1 µM | 0.1 to 1 µM | 0.1 to 1 µM
6 | CC(C)(C)[C@H](c1nc(-c2ccccc2)cn1Cc1ccccc1)N1C[C@H](CN)OCC1=O [Compound 6, (6S)-6-(aminomethyl)-4-[(1R)-1-(1-benzyl-4-phenyl-1H-imidazol-2-yl)-2,2-dimethylpropyl]morpholin-3-one] | > 1 µM | 0.1 to 1 µM | > 1 µM | 0.1 to 1 µM | 0.1 to 1 µM
7 | CC(C)(C)[C@H](c1nc(-c2ccccc2)cn1Cc1ccccc1)N1C[C@@H](CN)NCCC1=O [Compound 20, (2R)-2-(aminomethyl)-4-[(1R)-1-(1-benzyl-4-phenyl-1H-imidazol-2-yl)-2,2-dimethylpropyl]-1,4-diazepan-5-one] | > 1 µM | 0.1 to 1 µM | > 1 µM | 0.1 to 1 µM | 0.1 to 1 µM
8 | CC(C)(C)[C@H](c1nc(-c2ccccc2)cn1Cc1ccccc1)N1C[C@@H](CN)NC(=O)C1=O [Compound 16, (5R)-5-(aminomethyl)-1-[(1R)-1-(1-benzyl-4-phenyl-1H-imidazol-2-yl)-2,2-dimethylpropyl]piperazine-2,3-dione] | > 1 µM | ≤ 0.1 µM | > 1 µM | 0.1 to 1 µM | 0.1 to 1 µM
9 | CC(C)(C)[C@H](c1nc(-c2ccccc2)cn1Cc1ccccc1)N1C[C@H](CN)NC(=O)C1=O [Compound 17, (5S)-5-(aminomethyl)-1-[(1R)-1-(1-benzyl-4-phenyl-1H-imidazol-2-yl)-2,2-dimethylpropyl]piperazine-2,3-dione] | > 1 µM | ≤ 0.1 µM | > 1 µM | > 1 µM | > 1 µM
10 | CC(C)(C)[C@H](c1nc(-c2cccc(F)c2)cn1Cc1cccc(F)c1)N1C[C@H](CN)COCC1=O [Compound 29, (6S)-6-(aminomethyl)-4-{(1R)-1-[1-(3-fluorobenzyl)-4-(3-fluorophenyl)-1H-imidazol-2-yl]-2,2-dimethylpropyl}-1,4-oxazepan-3-one] | 0.1 to 1 µM | ≤ 0.1 µM | 0.1 to 1 µM | 0.1 to 1 µM | 0.1 to 1 µM
11 | CC(C)(C)[C@H](c1nc(-c2ccccc2)cn1Cc1ccccc1)N1C[C@@H](CN)COCC1=O [Compound 25, (6R)-6-(aminomethyl)-4-[(1R)-1-(1-benzyl-4-phenyl-1H-imidazol-2-yl)-2,2-dimethylpropyl]-1,4-oxazepan-3-one] | 0.1 to 1 µM | ≤ 0.1 µM | 0.1 to 1 µM | ≤ 0.1 µM | ≤ 0.1 µM
